Experimental data reported in US20100160391A1, “Substituted Aminopyridines as Fluorescent Reporters for Amide Hydrolases” (priority 2006, published 2010).

What was measured:
[1] = biological target: T1, human FAAH, microsomes from FAAH cells (Homo sapiens, UniProt O00519); assay: Specific activity, microsomes from FAAH cells; format: biochemical
T1 construct: made in house; host or cells: Trichoplusia ni High Five cells infected with recombinant baculovirus Ac-hFAAH; microsomal fraction
T1 sequence (O00519 1-579): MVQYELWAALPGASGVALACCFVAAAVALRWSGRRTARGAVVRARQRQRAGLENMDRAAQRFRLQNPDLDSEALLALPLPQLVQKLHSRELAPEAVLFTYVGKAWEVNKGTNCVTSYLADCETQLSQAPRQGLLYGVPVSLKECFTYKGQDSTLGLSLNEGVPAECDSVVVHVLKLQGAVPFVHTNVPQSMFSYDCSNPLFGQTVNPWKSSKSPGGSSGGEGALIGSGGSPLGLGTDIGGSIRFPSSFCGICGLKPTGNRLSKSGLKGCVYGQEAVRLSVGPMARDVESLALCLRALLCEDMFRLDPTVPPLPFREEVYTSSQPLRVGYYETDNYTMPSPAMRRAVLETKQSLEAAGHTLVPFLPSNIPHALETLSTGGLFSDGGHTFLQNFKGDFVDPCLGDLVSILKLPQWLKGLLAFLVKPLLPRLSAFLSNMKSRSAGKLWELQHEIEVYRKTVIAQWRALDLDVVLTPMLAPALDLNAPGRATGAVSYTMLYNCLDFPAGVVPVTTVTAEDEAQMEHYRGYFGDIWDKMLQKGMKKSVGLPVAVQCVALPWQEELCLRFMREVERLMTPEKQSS
Protocol: Preparation of recombinant human FAAH. Transgenic expression of the human FAAH in a baculovirus system was performed by following the method described in Nishi et al., Arch. Biochem. Biophys., 445:115-123 (2006). The cDNA encoding human FAAH (GenBank Accession No. NM_001441) was amplified by PCR using a human liver cDNA library (Invitrogen; Carlsbad, Calif.) as a template. The primer pair was 5′-[…]-3′ and 5′-[…]-3′. BglII and EcoRI endonuclease sites (underlined) were incorporated just upstream of the start codon and downstream of the stop codon of the coding sequence of FAAH, respectively. The PCR products were cloned into a pCR2.1 vector (Invitrogen) and the nucleotide sequence was verified by DNA sequencing. The cDNA fragments were then excised and directionally ligated to the BglII and EcoRI sites of the baculovirus transfer vector pAcUW21 (Lopez-Ferber et al., Baculovirus transfer vectors, in “Baculovirus Expression Protocols,” Richardson (Ed.), pp 25-63, Humana Press, Totowa, N.J., 1995). Recombinant baculoviruses harboring the human FAAH gene, Ac-hFAAH, were generated by co-transfection of Spodoptera frugiperda-derived Sf21 cells with the recombinant transfer vector plasmid and Bsu36I-cleaved BacPAK6 viral DNA (Clontech Laboratories; Mountain View, Calif.) as described in O'Reilly et al., Baculovirus Expression Vectors: A Laboratory Manual, Oxford University Press, New York, 1992. Trichoplusia ni-derived High Five cells (1×10^6 cells/ml) were inoculated with a high titer of Ac-hFAAH. At 72 hours post-infection, the infected cells were harvested by centrifugation at 2,000×g for 20 min at 4° C. and suspended in 50 mM Tris-HCl (pH 8.0) containing 150 mM NaCl, 1 mM EDTA, 1 μM pepstatin, 100 μM leupeptin, and 0.1 mg/ml aprotinin. The cell suspension was then homogenized using a Polytron homogenizer and centrifuged at 10,000×g for 20 min at 4° C. The microsomal fraction was collected by ultracentrifugation of the supernatant at 100,000×g for 60 min at 4° C. The pellet was resuspended in 20 mM Tris-HCl (pH 8.0) containing 10% (w/v) glycerol and 1% (w/v) Triton-X 100 and stored at −80° C. until use.
Comparison of the lowest detection limits of protein concentration of FAAH toward colorimetric and fluorescent substrates. In general, all assays were performed in 96-well styrene flat-bottom microtiter plates with a Spectra Max M2 spectrophotometer at 37° C. for […]. The total volume of each well was 201 μl consisting of 0.1 M sodium phosphate buffer (pH 8.0) (190 μl) containing 1% glycerol and 0.1% Triton-X 100, stock or diluted protein solution (10 μl), and the substrate solution (1 μl) in ethanol (final concentration 200 μM for 10, 11, 13 or 14) or in DMSO (final concentration 25 μM for 12, 15, or 16; 50 μM for 17). The lowest detection limits of microsomal fatty acid amide hydrolase (FAAH) by substrates were determined by the fact that the signal at 10 min after kinetic measurements are equal to or over three times the noise or basal line at 0 min. Colorimetric substrate (16) assays were performed in clear 96-well microtititer plates using an absorbance wavelength at 382 nm. The fluorescent substrates containing 5-amino-2-methoxypyridine (e.g., 10, 13) were measured at an excitation wavelength (302 nm), emission wavelength (396 nm), and auto cutoff wavelength (325 nm). Similarly, the fluorescent substrates containing 5-amino-2-methoxy-6-methylpyridine (e.g., 11, 14, and 17) were measured at an excitation wavelength (304 nm), emission wavelength (392 nm), and an auto cutoff wavelength of 325 nm. In addition, an excitation wavelength (366 nm), emission wavelength (496 nm), and auto cutoff wavelength (495 nm) were used for the substrates (e.g., 12 and 15) containing 7-amino-4-trifluoromethyl coumarin.
Specific activity determination. The assays for specific activities were performed as described above for the sensitivity assay. […]

[2] = test system: amidases, microsomes from High Five cells; assay: Specific activity, microsomes from High Five cells; details: pH 8.0, 37° C.; NM = not measurable at the same protein concentration as other substrates
Protocol: Preparation of recombinant human FAAH. Transgenic expression of the human FAAH in a baculovirus system was performed by following the method described in Nishi et al., Arch. […] The cDNA encoding human FAAH (GenBank Accession No. NM—001441) was amplified by PCR using a human liver cDNA library (Invitrogen; Carlsbad, Calif.) as a template. The primer pair was 5′-[sequence]-3′ and 5′-[sequence]-3′. BglII and EcoRI endonuclease sites (underlined) were incorporated just upstream of the start codon and downstream of the stop codon of the coding sequence of FAAH, respectively. The PCR products were cloned into a pCR2.1 vector (Invitrogen) and the nucleotide sequence was verified by DNA sequencing. The cDNA fragments were then excised and directionally ligated to the BglII and EcoRI sites of the baculovirus transfer vector pAcUW21 (Lopez-Ferber et al., Baculovirus transfer vectors, in “Baculovirus Expression Protocols,” Richardson (Ed.), pp 25-63, Humana Press, Totowa, N.J., 1995). Recombinant baculoviruses harboring the human FAAH gene, Ac-hFAAH, were generated by co-transfection of Spodoptera frugiperda-derived Sf21 cells with the recombinant transfer vector plasmid and Bsu36I-cleaved BacPAK6 viral DNA (Clontech Laboratories; Mountain View, Calif.) as described in O'Reilly et al., Baculovirus Expression Vectors: A Laboratory Manual, Oxford University Press, New York, 1992. Trichoplusia ni-derived High Five cells (1×10^6 cells/ml) were inoculated with a high titer of Ac-hFAAH. At 72 hours post-infection, the infected cells were harvested by centrifugation at 2,000×g for 20 min at 4° C. and suspended in 50 mM Tris-HCl (pH 8.0) containing 150 mM NaCl, 1 mM EDTA, 1 μM pepstatin, 100 μM leupeptin, and 0.1 mg/ml aprotinin. The cell suspension was then homogenized using a Polytron homogenizer and centrifuged at 10,000×g for 20 min at 4° C. […]
Comparison of the lowest detection limits of protein concentration of FAAH toward colorimetric and fluorescent substrates. […] The lowest detection limits of microsomal fatty acid amide hydrolase (FAAH) by substrates were determined by the fact that the signal at 10 min after kinetic measurements are equal to or over three times the noise or basal line at 0 min. Colorimetric substrate (16) assays were performed in clear 96-well microtititer plates using an absorbance wavelength at 382 nm. The fluorescent substrates containing 5-amino-2-methoxypyridine (e.g., 10, 13) were measured at an excitation wavelength (302 nm), emission wavelength (396 nm), and auto cutoff wavelength (325 nm). Similarly, the fluorescent substrates containing 5-amino-2-methoxy-6-methylpyridine (e.g., 11, 14, and 17) were measured at an excitation wavelength (304 nm), emission wavelength (392 nm), and an auto cutoff wavelength of 325 nm. […]

[3] = Comparison of aqueous solubility of substrates (absorbance at 800 nm); format: physicochemical; details: 0.1 M phosphate buffer (pH 8.0), 1% ethanol, 37° C.
Protocol: Comparison of aqueous solubility of substrates. The aqueous solubility of the aminopyridine derivatives (e.g., 13, 14) and the 7-aminocoumarin derivative (e.g., 15) was determined in clear 96-well styrene flat-bottom microtiter plates with a Spectra Max M2 spectrophotometer. Different concentrations of the substrates (13, 14 and 15; final concentration: 0.39, 0.78, 1.56, 3.13, 6.25, 12.5, 25, 50, 100, or 200 μM) in 200 μl 0.1 M sodium phosphate buffer (1% ethanol; pH 8.0) were used and the absorbance was recorded at a wavelength of 800 nm at 37° C. The measurements were performed in three replicates for each concentration.

With `CCCCCCCC(=O)Nc1ccc(OC)nc1` [Compound 13, N-(6-methoxypyridin-3-yl) octanamide] the melting point was 61.2 to 61.7 °C, the “enhancement of activity, microsomes from FAAH-expressing cells compared with High Five cells” value [1] was 254 times and the “preference of FAAH for substrate (13) over (14), specific activity” value ([1]; Table 4) was 10 times. For the same compound, the “Specific activity, Microsomes from FAAH cells” value ([1]; pH 8.0, 37° C., NM = not measurable at the same protein concentration as other substrates) was 202.6 ± 3.3 nmol/min/mg protein, the “Specific activity, Microsomes from High Five cells” value [2] was 793 ± 38.9 pmol/min/mg protein and the “aqueous solubility compared with coumarin substrate (15)” value [3] was “much higher solubility”.
